Primed or numbered codes have the meaning given here. FITC′ = fluorescein group attached to the epsilon side chain of lysine
What was measured:
1D5 monoclonal antibody [1] = test: Peptide ELISA of synthetic ER peptides; assay type: binding, mouse; conditions: compared among ER peptides 3, 4 and 6
From the text: (§1) Three synthetic peptides (designated as ER peptide 3, ER peptide 4, and ER peptide 6), that are representative of above consensus phage sequence, were synthesized (by SynPep Labs, Dublin, Calif. and Bachem Labs, King of Prussia, Pa.) and tested for specificity/affinity to 1D5 monoclonal antibody.

1D5 monoclonal antibody [2] = test: Fluorescence polarization assay of synthetic ER peptides; design: species or system mouse; conditions: binding to 1D5 monoclonal antibody, FITC-labelled peptide
Description: Large quantities of each of the selected phage are grown and nucleic acid extracted for sequence analysis. Based on the nucleotide sequence coding for the inserted ten-mer peptide, corresponding peptides are synthesized. Numerous commercial vendors provide peptide synthesis capabilities. The binding affinity of each of the selected peptide sequences for their antibodies is determined using Scatchard analysis. The percentage of antibodies binding to the peptide can be ascertained using fluorescence polarization analysis, provided that the peptide is fluorescently labeled. The specificity of binding for each peptide antigen mimic is tested using irrelevant, isotype-matched antibodies.
as §1

Ac-DFQCPYVECVVNAPGGK(FITC)GK-CONH2 (Ac-DFQCPYVECVVNAPGGK(FITC′)GK-NH2; cysteine pairing not given here) [ER peptide 3]
Peptide ELISA signal (1D5 monoclonal antibody [1]): highest signal | Kd (1D5 monoclonal antibody [2]): ~1 nM

Reference: patent US6855490B2, “Method for attaching biological molecules to a glass surface” (Medical Discovery Partners LLC, priority 1999, dated 2005)
